Data taken from patent publication US7074789B2, “Kinase inhibitors” (Amgen Inc., priority 1999, dated 2006).
Read-outs that look alike come from different tables or passages of the source.

Key:
Assay type in all cases: biochemical
[1] = biological target: T1, Lck (Homo sapiens, UniProt P06239); assay: Kinase inhibition assay (33P transfer), Lck; conditions: read-out: Lck-1
T1 construct: Kinases are expressed as either kinase domains or full length constructs; made in house
How it was run: (§1)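 Each kinase, expressed as a GST- or polyHis-tagged domain or full-length protein, phosphorylated plate-attached poly(Glu,Tyr) 4:1 or poly(Arg,Ser) 3:1 using 33P-ATP. Bound radioactivity was measured by scintillation after a 0.5% phosphoric acid wash.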

[2] = biological target: T2, Zap-70 (Homo sapiens, UniProt P43403); assay: Kinase inhibition assay (33P transfer), Zap-70; conditions: read-out: Zap-1
T2 construct: Kinases are expressed as either kinase domains or full length constructs; made in house
T2 sequence (P43403 1-619): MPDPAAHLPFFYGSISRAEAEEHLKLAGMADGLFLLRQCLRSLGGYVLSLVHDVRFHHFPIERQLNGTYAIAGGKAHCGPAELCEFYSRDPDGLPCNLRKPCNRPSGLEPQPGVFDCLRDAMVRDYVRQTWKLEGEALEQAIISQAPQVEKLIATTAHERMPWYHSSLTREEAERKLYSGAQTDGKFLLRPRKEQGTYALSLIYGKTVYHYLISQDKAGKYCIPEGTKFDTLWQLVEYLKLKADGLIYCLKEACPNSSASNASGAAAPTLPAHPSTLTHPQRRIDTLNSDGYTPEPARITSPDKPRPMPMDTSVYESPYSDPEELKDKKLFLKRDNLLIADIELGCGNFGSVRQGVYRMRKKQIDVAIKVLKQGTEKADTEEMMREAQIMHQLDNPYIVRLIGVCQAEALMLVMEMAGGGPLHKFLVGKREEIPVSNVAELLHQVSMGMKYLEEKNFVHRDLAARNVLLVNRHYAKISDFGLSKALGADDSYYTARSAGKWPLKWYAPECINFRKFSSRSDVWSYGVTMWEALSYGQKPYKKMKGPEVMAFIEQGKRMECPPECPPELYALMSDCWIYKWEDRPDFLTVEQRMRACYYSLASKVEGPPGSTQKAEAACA
How it was run: as §1

[3] = biological target: T3, Itk (Homo sapiens, UniProt Q08881); assay: Kinase inhibition assay (33P transfer), Itk; conditions: read-out: Itk-1
T3 construct: Kinases are expressed as either kinase domains or full length constructs; made in house
T3 sequence (Q08881 1-620): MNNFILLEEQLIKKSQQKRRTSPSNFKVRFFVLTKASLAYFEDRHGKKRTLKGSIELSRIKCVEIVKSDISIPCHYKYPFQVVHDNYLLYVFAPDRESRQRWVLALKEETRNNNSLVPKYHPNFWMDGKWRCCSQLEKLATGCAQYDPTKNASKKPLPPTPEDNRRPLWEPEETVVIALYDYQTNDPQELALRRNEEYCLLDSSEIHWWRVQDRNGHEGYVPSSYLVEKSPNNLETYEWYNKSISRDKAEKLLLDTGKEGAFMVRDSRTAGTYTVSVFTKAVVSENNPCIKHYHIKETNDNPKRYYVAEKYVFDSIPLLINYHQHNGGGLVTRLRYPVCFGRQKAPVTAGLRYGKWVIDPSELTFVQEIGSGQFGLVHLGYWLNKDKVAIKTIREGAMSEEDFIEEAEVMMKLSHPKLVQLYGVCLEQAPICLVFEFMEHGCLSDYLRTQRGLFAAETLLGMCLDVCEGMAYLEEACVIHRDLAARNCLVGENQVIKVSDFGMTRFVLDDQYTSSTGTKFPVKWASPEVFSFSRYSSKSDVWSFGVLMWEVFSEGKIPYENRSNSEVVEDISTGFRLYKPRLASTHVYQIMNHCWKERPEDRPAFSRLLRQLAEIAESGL
How it was run: (§2)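 GST/His-fusion kinases, E. coli or High Five expressed, affinity purified; 33P-ATP, plate-coated poly(Glu,Tyr) 4:1 or poly(Arg,Ser) 3:1; 0.5% H3PO4 wash, scintillant, LSC.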

[4] = biological target: T4, EGFR (Homo sapiens, UniProt P00533); assay: Kinase inhibition assay (33P transfer), EGFR; conditions: Table 2, kinase inhibition class; read-out: EGFR-1
T4 construct: Kinases are expressed as either kinase domains or full length constructs; made in house
How it was run: as §2

[5] = biological target: T5, ErbB2 (Homo sapiens, UniProt P04626); assay: Kinase inhibition assay (33P transfer), ErbB2; conditions: read-out: ErbB2-2
T5 construct: Kinases are expressed as either kinase domains or full length constructs; made in house
How it was run: as §2

[6] = biological target: T6, Kdr (Homo sapiens, UniProt P35968); assay: Kinase inhibition assay (33P transfer), Kdr
T6 construct: Kinases are expressed as either kinase domains or full length constructs; made in house
How it was run: as §1

[7] = biological target: T7, c-Met (Homo sapiens, UniProt P08581); assay: Kinase inhibition assay (33P transfer), c-Met; conditions: Table 2, kinase inhibition class; read-out: Met-1
T7 construct: Kinases are expressed as either kinase domains or full length constructs; made in house
How it was run: as §2

[8] = biological target: T8, AKT (Homo sapiens, UniProt Q9Y243); assay: Kinase inhibition assay (33P transfer), AKT; conditions: Table 2, kinase inhibition class; read-out: AKT3-1
T8 construct: Kinases are expressed as either kinase domains or full length constructs; made in house
How it was run: as §1

[9] = biological target: T9, IGFR-1 (Homo sapiens, UniProt P08069); assay: Kinase inhibition assay, IGFR-1 (Table 2); conditions: Table 2, kinase inhibition class
T9 construct: Kinases are expressed as either kinase domains or full length constructs; made in house

[10] = biological target: T10, PDGFRB (Homo sapiens, UniProt P09619); assay: Kinase inhibition assay (33P transfer), PDGFRB; conditions: read-out: PDGFRB-1
T10 construct: Kinases are expressed as either kinase domains or full length constructs; made in house

[11] = biological target: T11, Tek (Homo sapiens, UniProt Q02763); assay: Kinase inhibition assay (33P transfer), Tek; conditions: read-out: Tek-1
T11 construct: Kinases are expressed as either kinase domains or full length constructs; made in house
How it was run: as §2

[12] = biological target: T9, IGFR-1; assay: Kinase inhibition assay (33P transfer), IGFR-1; conditions: Table 2, kinase inhibition class

T10 sequence (P09619 33-1106, species assumed): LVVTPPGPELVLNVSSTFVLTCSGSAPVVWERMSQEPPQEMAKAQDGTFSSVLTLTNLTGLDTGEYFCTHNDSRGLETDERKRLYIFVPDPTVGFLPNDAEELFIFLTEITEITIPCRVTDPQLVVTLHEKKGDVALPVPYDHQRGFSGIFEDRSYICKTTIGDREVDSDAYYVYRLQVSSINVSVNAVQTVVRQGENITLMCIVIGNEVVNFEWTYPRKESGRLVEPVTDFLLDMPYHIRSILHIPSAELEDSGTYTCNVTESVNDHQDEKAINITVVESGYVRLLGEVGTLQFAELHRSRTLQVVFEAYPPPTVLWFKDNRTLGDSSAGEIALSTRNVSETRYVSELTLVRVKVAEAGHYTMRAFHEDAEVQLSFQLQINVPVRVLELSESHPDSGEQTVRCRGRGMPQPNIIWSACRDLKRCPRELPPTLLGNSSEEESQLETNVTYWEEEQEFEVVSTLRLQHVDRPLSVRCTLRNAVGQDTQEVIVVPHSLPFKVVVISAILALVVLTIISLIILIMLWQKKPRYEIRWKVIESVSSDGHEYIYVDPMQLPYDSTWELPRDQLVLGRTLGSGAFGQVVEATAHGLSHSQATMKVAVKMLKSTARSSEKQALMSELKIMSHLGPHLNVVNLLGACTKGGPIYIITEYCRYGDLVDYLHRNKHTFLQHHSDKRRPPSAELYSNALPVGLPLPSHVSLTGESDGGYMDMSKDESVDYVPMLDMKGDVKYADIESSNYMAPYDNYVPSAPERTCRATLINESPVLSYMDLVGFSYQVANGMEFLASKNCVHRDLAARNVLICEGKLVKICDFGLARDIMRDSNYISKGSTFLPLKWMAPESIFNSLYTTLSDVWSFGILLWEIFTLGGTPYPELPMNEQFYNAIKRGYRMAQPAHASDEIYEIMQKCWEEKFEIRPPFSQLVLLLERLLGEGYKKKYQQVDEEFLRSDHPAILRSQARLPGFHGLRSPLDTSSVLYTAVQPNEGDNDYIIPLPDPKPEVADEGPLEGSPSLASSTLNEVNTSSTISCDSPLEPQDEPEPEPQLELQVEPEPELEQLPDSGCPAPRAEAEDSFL
T8 sequence (Q9Y243 whole entry, the tested form may be a part): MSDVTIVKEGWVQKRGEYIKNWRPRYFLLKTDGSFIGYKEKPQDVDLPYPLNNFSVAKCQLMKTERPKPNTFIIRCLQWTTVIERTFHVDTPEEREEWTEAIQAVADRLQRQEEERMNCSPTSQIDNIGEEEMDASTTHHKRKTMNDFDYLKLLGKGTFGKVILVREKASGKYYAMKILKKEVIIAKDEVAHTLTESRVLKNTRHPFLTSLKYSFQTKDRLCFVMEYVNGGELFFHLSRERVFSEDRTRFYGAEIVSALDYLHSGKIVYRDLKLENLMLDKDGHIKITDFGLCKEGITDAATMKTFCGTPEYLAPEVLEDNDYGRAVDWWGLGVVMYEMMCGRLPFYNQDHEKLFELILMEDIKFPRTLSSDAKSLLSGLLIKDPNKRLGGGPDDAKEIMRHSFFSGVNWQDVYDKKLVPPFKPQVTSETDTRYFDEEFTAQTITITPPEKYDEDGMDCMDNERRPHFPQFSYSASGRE
T7 sequence (P08581 25-1390): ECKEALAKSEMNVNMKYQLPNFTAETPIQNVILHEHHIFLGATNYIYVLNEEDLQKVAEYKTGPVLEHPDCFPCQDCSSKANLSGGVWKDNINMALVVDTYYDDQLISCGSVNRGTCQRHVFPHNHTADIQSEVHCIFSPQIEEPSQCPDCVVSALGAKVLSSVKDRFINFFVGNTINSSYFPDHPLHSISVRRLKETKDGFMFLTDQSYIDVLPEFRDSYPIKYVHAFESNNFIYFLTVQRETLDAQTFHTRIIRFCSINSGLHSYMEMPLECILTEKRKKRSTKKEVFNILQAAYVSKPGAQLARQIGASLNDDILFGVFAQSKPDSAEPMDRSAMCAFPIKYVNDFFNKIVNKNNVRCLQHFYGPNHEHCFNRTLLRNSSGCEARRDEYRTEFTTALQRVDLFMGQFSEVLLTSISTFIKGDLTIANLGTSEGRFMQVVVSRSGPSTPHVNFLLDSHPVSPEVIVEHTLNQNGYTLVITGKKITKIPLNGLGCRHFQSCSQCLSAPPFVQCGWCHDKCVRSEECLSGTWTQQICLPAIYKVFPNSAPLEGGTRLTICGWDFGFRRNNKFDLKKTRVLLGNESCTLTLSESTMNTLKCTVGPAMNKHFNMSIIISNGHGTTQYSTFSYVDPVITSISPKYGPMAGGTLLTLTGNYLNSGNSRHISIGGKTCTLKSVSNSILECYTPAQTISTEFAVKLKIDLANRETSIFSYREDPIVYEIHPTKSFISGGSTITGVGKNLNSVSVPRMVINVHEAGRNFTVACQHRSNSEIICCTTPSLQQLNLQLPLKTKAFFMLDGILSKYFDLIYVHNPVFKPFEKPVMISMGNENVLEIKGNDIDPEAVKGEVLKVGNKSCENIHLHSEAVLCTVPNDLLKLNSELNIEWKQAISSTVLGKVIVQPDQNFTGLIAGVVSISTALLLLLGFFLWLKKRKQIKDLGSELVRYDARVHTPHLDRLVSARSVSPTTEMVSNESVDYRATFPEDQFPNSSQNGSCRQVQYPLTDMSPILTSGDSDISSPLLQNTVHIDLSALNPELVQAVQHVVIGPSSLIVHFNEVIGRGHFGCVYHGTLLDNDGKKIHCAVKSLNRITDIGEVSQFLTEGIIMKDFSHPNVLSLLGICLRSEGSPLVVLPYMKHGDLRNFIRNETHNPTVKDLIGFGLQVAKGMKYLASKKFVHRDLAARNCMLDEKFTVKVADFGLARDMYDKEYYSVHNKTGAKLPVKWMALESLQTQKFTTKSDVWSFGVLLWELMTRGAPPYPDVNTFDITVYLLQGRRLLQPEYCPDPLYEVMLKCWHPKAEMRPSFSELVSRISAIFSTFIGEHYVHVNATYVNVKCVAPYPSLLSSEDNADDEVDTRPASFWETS
T5 sequence (P04626 23-1255, species assumed): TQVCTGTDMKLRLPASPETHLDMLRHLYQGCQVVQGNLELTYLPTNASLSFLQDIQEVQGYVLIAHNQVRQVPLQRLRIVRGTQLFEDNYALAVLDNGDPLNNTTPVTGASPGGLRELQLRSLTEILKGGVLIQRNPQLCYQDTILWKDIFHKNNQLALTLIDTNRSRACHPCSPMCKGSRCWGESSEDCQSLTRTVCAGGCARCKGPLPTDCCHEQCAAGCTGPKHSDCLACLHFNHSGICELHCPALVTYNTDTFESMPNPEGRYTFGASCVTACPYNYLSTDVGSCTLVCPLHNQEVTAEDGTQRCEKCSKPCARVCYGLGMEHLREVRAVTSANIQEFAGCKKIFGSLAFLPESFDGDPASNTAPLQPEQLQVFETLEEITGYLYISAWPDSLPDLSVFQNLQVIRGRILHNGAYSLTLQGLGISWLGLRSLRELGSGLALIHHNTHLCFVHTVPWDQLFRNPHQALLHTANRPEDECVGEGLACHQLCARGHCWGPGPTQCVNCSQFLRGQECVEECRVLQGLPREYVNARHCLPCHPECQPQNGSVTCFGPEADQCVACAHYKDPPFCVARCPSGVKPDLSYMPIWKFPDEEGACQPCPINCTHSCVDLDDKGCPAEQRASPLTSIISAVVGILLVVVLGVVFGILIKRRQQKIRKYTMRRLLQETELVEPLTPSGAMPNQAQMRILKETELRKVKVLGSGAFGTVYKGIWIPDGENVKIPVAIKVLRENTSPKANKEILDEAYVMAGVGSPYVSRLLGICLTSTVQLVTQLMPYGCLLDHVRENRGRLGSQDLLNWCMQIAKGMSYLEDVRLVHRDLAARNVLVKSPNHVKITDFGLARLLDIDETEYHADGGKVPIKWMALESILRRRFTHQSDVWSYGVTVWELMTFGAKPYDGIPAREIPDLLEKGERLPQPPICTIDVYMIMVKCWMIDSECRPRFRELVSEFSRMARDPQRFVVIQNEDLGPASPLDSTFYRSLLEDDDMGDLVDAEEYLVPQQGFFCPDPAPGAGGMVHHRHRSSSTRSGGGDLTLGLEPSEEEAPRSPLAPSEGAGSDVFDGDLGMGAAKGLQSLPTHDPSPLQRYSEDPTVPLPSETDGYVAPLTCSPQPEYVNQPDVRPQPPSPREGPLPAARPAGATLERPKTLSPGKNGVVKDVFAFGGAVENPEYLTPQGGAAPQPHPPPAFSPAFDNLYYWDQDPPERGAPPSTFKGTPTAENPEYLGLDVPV
T1 sequence (P06239 whole entry, species assumed, the tested form may be a part): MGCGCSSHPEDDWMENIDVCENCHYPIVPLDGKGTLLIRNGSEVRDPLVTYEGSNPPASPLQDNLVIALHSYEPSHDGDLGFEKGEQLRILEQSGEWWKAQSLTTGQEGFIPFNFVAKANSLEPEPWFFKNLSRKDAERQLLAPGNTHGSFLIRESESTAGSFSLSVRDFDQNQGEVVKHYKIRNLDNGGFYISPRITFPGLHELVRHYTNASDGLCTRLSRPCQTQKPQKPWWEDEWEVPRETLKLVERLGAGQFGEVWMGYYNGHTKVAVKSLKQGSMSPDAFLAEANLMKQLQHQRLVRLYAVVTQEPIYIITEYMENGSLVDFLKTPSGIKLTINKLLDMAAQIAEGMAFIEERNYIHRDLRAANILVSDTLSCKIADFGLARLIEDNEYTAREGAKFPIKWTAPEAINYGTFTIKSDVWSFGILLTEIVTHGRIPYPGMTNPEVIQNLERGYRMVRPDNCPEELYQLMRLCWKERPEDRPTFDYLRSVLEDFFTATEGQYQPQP

Row | Structure (SMILES) | IC50 [1] | IC50 [2] | IC50 [3] | IC50 [4] | IC50 [5] | IC50 ([6]; read-out: KDR-1) | IC50 [7] | IC50 [8] | IC50 [9] | IC50 [10] | IC50 ([1]; Table 3) | IC50 ([2]; Table 3) | IC50 ([3]; Table 3) | IC50 ([6]; Table 3, read-out: KDR-1) | IC50 [11] | IC50 [12] | IC50 ([6]; KDR-1)
1 | COc1cc(Nc2ncnc(Nc3ccc(NC(C)=O)c(C(F)(F)F)c3)n2)cc(OC)c1OC [Compound 617] | 0.836 to 5.02 µM | > 9.41 µM | > 9.41 µM | 5.02 to 7.32 µM | > 9.41 µM | 0.836 to 5.02 µM | > 9.41 µM | > 9.41 µM | 5.02 to 7.32 µM | 0.836 to 5.02 µM | – | – | – | – | – | – | –
2 | COc1cc(Nc2ncnc(-c3ccccc3)n2)cc(OC)c1 [Compound 15] | – | – | – | > 14.6 µM | – | – | > 14.6 µM | > 14.6 µM | – | – | > 14.6 µM | 11.4 to 14.6 µM | > 14.6 µM | > 14.6 µM | > 14.6 µM | > 14.6 µM | –
3 | COc1cc(Nc2ncnc(-n3c(NCC(N)=O)nc4ccccc43)n2)cc(OC)c1OC [Compound 389] | – | – | – | > 9.99 µM | – | – | > 9.99 µM | > 9.99 µM | – | – | > 9.99 µM | > 9.99 µM | > 9.99 µM | > 9.99 µM | > 9.99 µM | < 0.888 µM | –
4 | COc1cc(Nc2ncnc(-n3c(NCc4ccc(Cl)cc4C)nc4ccccc43)n2)cc(OC)c1OC [Compound 597] | 0.752 to 4.51 µM | > 8.46 µM | > 8.46 µM | 6.58 to 8.46 µM | 0.752 to 4.51 µM | 0.752 to 4.51 µM | > 8.46 µM | 4.51 to 6.58 µM | 6.58 to 8.46 µM | 4.51 to 6.58 µM | – | – | – | – | – | – | –
5 | Nc1nc2ccccc2n1-c1ncnc(Nc2ccccn2)n1 [Compound 659] | 7.89 to 11.5 µM | > 14.8 µM | 1.31 to 7.89 µM | > 14.8 µM | > 14.8 µM | – | > 14.8 µM | > 14.8 µM | 1.31 to 7.89 µM | > 14.8 µM | – | – | – | – | – | – | 7.89 to 11.5 µM
6 | COc1cc(Nc2ncnc(-n3c(NCc4ccc(C(F)(F)F)cc4)nc4ccccc43)n2)cc(OC)c1OC [Compound 598] | > 8.16 µM | > 8.16 µM | > 8.16 µM | > 8.16 µM | 6.35 to 8.16 µM | 0.725 to 4.35 µM | > 8.16 µM | > 8.16 µM | > 8.16 µM | > 8.16 µM | – | – | – | – | – | – | –
7 | COc1cc(Nc2ncnc(NC(=O)NCc3ccccc3)n2)cc(OC)c1OC [Compound 660] | 0.975 to 5.85 µM | > 11 µM | > 11 µM | 0.975 to 5.85 µM | 5.85 to 8.53 µM | > 11 µM | > 11 µM | > 11 µM | > 11 µM | > 11 µM | – | – | – | – | – | – | –

More lines, main results first:

Row | IC50 [1] | IC50 [2] | IC50 [3] | IC50 [4] | IC50 [5] | IC50 ([6]; read-out: KDR-1) | IC50 [7] | IC50 [8] | IC50 [9] | IC50 [10] | IC50 ([1]; Table 3) | IC50 ([2]; Table 3) | IC50 ([3]; Table 3) | IC50 ([6]; Table 3, read-out: KDR-1) | IC50 [11] | IC50 [12] | Structure (SMILES) | IC50 ([6]; KDR-1)
8 | – | – | – | > 16.2 µM | – | – | > 16.2 µM | > 16.2 µM | – | – | > 16.2 µM | > 16.2 µM | > 16.2 µM | > 16.2 µM | > 16.2 µM | > 16.2 µM | COc1cccc(Nc2ncnc(-c3ccccc3)n2)c1 [Compound 13] | –
9 | 0.78 to 4.68 µM | > 8.78 µM | > 8.78 µM | 6.83 to 8.78 µM | 4.68 to 6.83 µM | 4.68 to 6.83 µM | > 8.78 µM | > 8.78 µM | > 8.78 µM | 0.78 to 4.68 µM | – | – | – | – | – | – | COc1ccc(Nc2ncnc(Nc3cc(OC)c(OC)c(OC)c3)n2)cc1OCCN1CCOCC1 [Compound 599] | –
10 | > 10.6 µM | > 10.6 µM | > 10.6 µM | > 10.6 µM | > 10.6 µM | 0.942 to 5.65 µM | > 10.6 µM | > 10.6 µM | > 10.6 µM | > 10.6 µM | – | – | – | – | – | – | COc1cc(Nc2ncnc(NC(=O)NCCc3ccccc3)n2)cc(OC)c1OC [Compound 661] | –
